From patent publication US11921105B2, “Method for identifying positive allosteric modulators for odorant receptors” (FIRMENICH SA, priority 2017, dated 2024)
Where two headings read alike, the source gives them in different places.

Assays:
OR10J5 [1] = molecular target: T1, OR10J5 (Homo sapiens, UniProt Q8NHC4, R233W); assay: OR10J5 (+−)-2,5-dimethyl-2-indanmethanol dose-response with test compound; assay type: cell-based
T1 construct: Lucy (cleavable leucine-rich signal peptide) (N); FLAG (N); Rho (first 20 aa of bovine rhodopsin) (N); expressed in transfected cells
T1 sequence (Q8NHC4 1-309 R233W): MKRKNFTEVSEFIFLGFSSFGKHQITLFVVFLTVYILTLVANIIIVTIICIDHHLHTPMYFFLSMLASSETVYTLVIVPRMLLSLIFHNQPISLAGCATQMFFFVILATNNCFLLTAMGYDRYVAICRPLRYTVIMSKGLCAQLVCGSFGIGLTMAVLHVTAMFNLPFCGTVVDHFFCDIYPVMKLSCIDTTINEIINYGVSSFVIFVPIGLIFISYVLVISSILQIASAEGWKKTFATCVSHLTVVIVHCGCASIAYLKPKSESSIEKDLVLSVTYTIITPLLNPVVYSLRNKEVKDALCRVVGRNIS
Procedure: OR10J5 activity enhancement was tested with an additional agonist and with one of the test compounds and conditions described in the Examples above. Dose response curves to (+−)-2,5-dimethyl-2-indanmethanol was obtained in the presence of a steady concentration of the test compound and compared to a dose-response curve of the agonist alone. The resulting enhancement was quantified by means of EC50-fold shift (potency increase) and the efficacy span ratio (efficacy increase) as described above.

OR10J5 [2] = molecular target: T1, OR10J5; assay: OR10J5 LYRAL® dose-response at serial enhancer concentrations, allosteric EC50 shift model; assay type: cell-based
Procedure: Functional dose-response experiments were performed to reveal the allosteric nature of the interaction between heliopropanal, 3-(4-methylcyclohex-3-en-1-yl)butanal, melonal and heptanal and OR10J5. The level of enhancement of OR10J5's activation was evaluated at distinct concentrations of each enhancer. Using the same cell-based assay described earlier, dose response curves of OR10J5 to LYRAL® in the presence of serial concentrations of the enhancers spanning from 0 to 600 μM were performed, see FIG. 19. The curves were obtained by applying the simplified Allosteric EC50 shift effect equation (available in Prism7) derived from the ternary complex interaction model. The enhancement levels recorded were not linearly dependent on the concentration of the enhancer, and the following key parameters values for α (the cooperativity factor) and KB (the equilibrium dissociation constant of the enhancer) were obtained from the model for each enhancer: heliopropanal, α=6.3 and KB=10 μM; 3-(4-methylcyclohex-3-en-1-yl)butanal, α=7.5 and KB=15 μM; melonal, α=4.1 and KB=16 μM; and heptanal; α=3.2 and KB=51 μM. α>1 is indicative of positive allosteric modulation.

OR5AN1 = molecular target: T2, OR5AN1 (Homo sapiens, UniProt Q8NGI8); assay: OR5AN1 MUSCENONE® dose-response at serial enhancer concentrations, allosteric EC50 shift model; assay type: cell-based; details: enhancer 0 to 1 mM; for Kb: read-out: KB (equilibrium dissociation constant)
T2 construct: FLAG (N); Rho (first 20 aa of bovine rhodopsin) (N); expressed in transfected cells
T2 sequence (Q8NGI8 1-311): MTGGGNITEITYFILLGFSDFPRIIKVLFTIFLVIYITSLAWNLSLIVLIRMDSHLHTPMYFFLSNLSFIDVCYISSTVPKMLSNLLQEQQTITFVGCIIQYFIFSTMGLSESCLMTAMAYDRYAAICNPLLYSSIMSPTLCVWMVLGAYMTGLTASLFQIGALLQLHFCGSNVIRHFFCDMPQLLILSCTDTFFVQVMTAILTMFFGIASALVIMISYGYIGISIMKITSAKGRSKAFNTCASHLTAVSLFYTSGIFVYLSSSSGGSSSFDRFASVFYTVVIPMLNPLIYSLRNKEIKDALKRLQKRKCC
Procedure: The level of enhancement of OR5AN1's activation was evaluated at distinct concentrations of the enhancer. […] The curves were obtained by applying the simplified Allosteric EC50 shift effect equation (available in Prism5, v. 5.02) derived from the ternary complex interaction model. The enhancement levels recorded were not linearly dependent on the concentration of the enhancer, and the following key parameters values for a (the cooperativity factor) and KB (the equilibrium dissociation constant of TDA) obtained from the model: α=15.7 and KB=259 μM. α>1 is indicative of positive allosteric modulation.

[3] = molecular target: T3, OR10J5 olfactory receptor (Homo sapiens, UniProt Q8NHC4, R233W); assay: Single point binary mixture screen (LYRAL® + test compound) for OR10J5 activity enhancement; assay type: cell-based; details: LYRAL® 4.6 and test compound 300 μM; numbered by decreasing OR10J5 activity (span)
T3 construct: Lucy (cleavable leucine-rich signal peptide) (N); FLAG (N); Rho (first 20 aa of bovine rhodopsin) (N); expressed in transfected cells
T3 sequence (Q8NHC4 1-309 R233W): T1 sequence (Q8NHC4 1-309 R233W)
From the text: The Lucy-Flag-Rho-tagged receptor is co-transfected with the olfactory canonical G-protein Golf and exposed to a binary mixture of a single concentration of a floral muguet compound and a test compound.
A dose response curve showing the activation of OR10J5 in response to the floral muguet compound […], 4-(4-hydroxy-4-methylpentyl)cyclohex-3-ene-1-carbaldehyde or a mixture thereof (sold under the tradename LYRAL®, hereinafter referred to as “LYRAL®”) is shown in FIG. 15. Using a cell-based assay, OR10J5 activity was tested in a HEK293T cell line wherein the endogenous chaperone RTP1 gene has been activated and the odorant receptor chaperone was expressed according to the methods disclosed in International Patent Application Publication No. WO2016/201153 A1. The Flag-Rho-tagged receptor was co-transfected with the olfactory canonical G-protein Golf and was exposed to a binary mixture of a single concentration of LYRAL® and a test compound.
A library of volatile compounds was used to create binary mixtures of each compound with LYRAL® at approximately EC20, a concentration eliciting only approximately 20% of full activity level of OR10J5 by itself. An activation cell-based assay was used for the initial enhancer candidate identification. Single binary mixture-induced receptor activity was detected by measuring the cAMP increase in the cytosol using an HTRF (Homogenous Time-Resolved Fluorescence unit) based kit (CisBio, cAMP dynamic 2 kit, 62AM4PEJ).
800 binary mixtures were created by mixing a LYRAL® stock solution with a stock solution of each test compound to a final concentration 4.6 and 300 μM, respectively. Stock solutions were made of compounds dissolved in pure DMSO. Each mixture was presented to a cell line expressing the OR10J5 olfactory receptor. The final concentration of DMSO in each binary mixture was 0.1%, and had no visible effect on the cells (see FIG. 16).
The resulting activation was then measured and compared to LYRAL® alone (defining the baseline of the enhancement assay). The quality of the HTS process was determined and the window variability and signal reliability were assessed by calculating the Z′ value of each plate. […] These OR10J5 olfactory receptor agonists further confirmed that the dynamic range of the assay window was sufficient (as the responses recorded were well above baseline) and thus likely sensitive enough to detect even low levels of putative enhancement.

Olfr1440 = molecular target: T4, Olfr1440 (Mus musculus, UniProt Q8VFV4); assay: Olfr1440 MUSCENONE®-induced activation in the presence of enhancer (control); assay type: cell-based; details: FIG. 5
T4 construct: expressed in transfected cells
T4 sequence (Q8VFV4 1-315): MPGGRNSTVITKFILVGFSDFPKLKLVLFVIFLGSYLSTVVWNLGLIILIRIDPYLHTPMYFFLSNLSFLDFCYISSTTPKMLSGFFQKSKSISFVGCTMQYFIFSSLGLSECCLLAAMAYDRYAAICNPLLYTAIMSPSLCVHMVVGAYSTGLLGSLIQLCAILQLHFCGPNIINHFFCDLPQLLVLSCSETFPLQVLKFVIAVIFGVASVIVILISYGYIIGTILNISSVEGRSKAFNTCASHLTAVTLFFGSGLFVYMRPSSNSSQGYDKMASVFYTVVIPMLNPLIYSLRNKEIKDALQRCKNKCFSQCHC
Procedure: Furthermore and as a control, a similar experiment was performed on the mouse MUSCENONE® responsive odorant receptor Olfr1440, the ortholog of OR5AN1.

[4] = molecular target: T5, OR5AN1 olfactory receptor (Homo sapiens, UniProt Q8NGI8); assay: OR5AN1 dose-response of musk agonist with and without modulator, and of candidate alone (EC50 shift, span); assay type: cell-based
T5 construct: FLAG (N); Rho (first 20 aa of bovine rhodopsin) (N); expressed in transfected cells
T5 sequence (Q8NGI8 1-311): T2 sequence (Q8NGI8 1-311)
Procedure: 15 candidates, marked as “enhancement” in Table 2 were identified. Strikingly, 80% of these putative enhancers (12/15) belonged to the same class of chemicals: unsaturated aliphatic aldehydes. Next, two parallel dose-response experiments to confirm the true enhancement properties of the potential candidates were performed. First, a dose-response of each individual candidate was performed to determine if it was an agonist by itself. Second, a MUSCENONE® dose-response curve in the presence and absence of a 250 μM concentration of the putative modulator was assessed for EC50 shifts.
Dose response curves to MUSCENONE® were obtained in the presence of 250 μM of each compound and compared to a dose-response curve of MUSCENONE® alone. The resulting enhancement was quantified by means of EC50-fold shift (potency increase) and the efficacy span ratio (efficacy increase).
The EC50-fold shift was obtained by […]. The span ratio was obtained by dividing the span of MUSCENONE®+compound by the reference span of MUSCENONE® alone. Specifically, diverse aliphatic α-β mono- or poly-unsaturated molecules have been compared.

human panelists = assay: Human MUSCENONE® odor detection threshold (ODT), forced-choice triangle tests with background odor; assay type: in vivo; details: background compound at 0.1%; 2/3 correct responses
Procedure: Sensitivity of human individuals to MUSCENONE® was evaluated by performing an odor detection threshold (ODT) test. The ODT test consisted of identifying the concentration for which 50%, preferably 66%, of the panelists are able to determine which of three containers contains the target compound MUSCENONE® in a forced-choice triangle tests. Two tests were performed to calculate the ODT in mixtures containing MUSCENONE® plus a perceivable background odor of chemically similar molecules a) the enhancer tridecylenic aldehyde and b) the non-enhancing volatile compound, nonanal.
27 panelists were given a series of triangle tests with increasing concentration of MUSCENONE® in the presence of nonanal at a concentration of 0.1%. Within each triangle test, the three samples contained nonanal at 0.1% and one sample also contained MUSCENONE®. In each triangle test, the panelists were asked to identify the one sample that was different from the other two samples. The ODT was calculated by fitting a non-linear regression model onto the data and calculating the MUSCENONE® concentration at which the proportion of correct responses was equal to 2/3 (66%, the midpoint between chance rate 1/3 and all correct answers 1). […]

[5] = LYRAL®, enhancer 0 to 600 μM, read-out: KB (equilibrium dissociation constant of the enhancer)

Cc1ccc2c(c1)CC(C)(CO)C2 (racemic) [(+−)-2,5-dimethyl-2-indanmethanol, reference compound]
agonist type on OR10J5 (OR10J5 [1]): partial agonist

CC1=CC[C@H](C(C)CC=O)CC1 (stereo partly drawn) [3-(4-methylcyclohex-3-en-1-yl)butanal]
α (cooperativity factor) (OR10J5 [2]; LYRAL®, enhancer 0 to 600 μM): 7.5 | Kb (OR10J5 [2]; [5]): 15 µM

CCCCCCC=O [Heptanal]
α (cooperativity factor) (OR10J5 [2]; LYRAL®, enhancer 0 to 600 μM): 3.2 | Kb (OR10J5 [2]; [5]): 51 µM

CCCCCCCC=CC=O [Hit 2-decenal, 2-decenal]
α (cooperativity factor) (OR5AN1): 37.3 | Kb (OR5AN1): 264 µM

CC/C=C\CCCCC=O [Hit 23]
Hit Type [3]: Enhancement

CCCCCC=O [Hit 24]
Hit Type [3]: Enhancement

C[C@@H](CC=O)CCCC(C)(C)O [Hit 25]
Hit Type [3]: Agonist

CC(C)=CCCC1=CCC(C)(C=O)CC1 (stereo not drawn) [Hit 26]
Hit Type [3]: Enhancement

CC(C)=CCCC(C)C=O (stereo not drawn) [Hit 27]
Hit Type [3]: Enhancement

O=Cc1ccccc1 [Hit 28]
Hit Type [3]: Enhancement

CCCCC/C=C/C=C/C=O [Hit 32]
Hit Type [3]: Enhancement

CCCCCCCCC=O [Hit 33]
Hit Type [3]: Enhancement

C=CC(C)CCCC(C)(C)O (stereo not drawn) [Hit 34]
Hit Type [3]: Agonist

CCCCCCC1CCCC(=O)O1 (stereo not drawn) [Hit 35]
Hit Type [3]: Enhancement

Cc1ccc(CC(C)C=O)cc1 (stereo not drawn) [Hit 36]
Hit Type [3]: Enhancement

O=Cc1ccc2c(c1)OCO2 [Hit 37]
Hit Type [3]: Enhancement

CC1=CC(C)C(C=O)C(C)C1 (stereo not drawn) [Hit 39]
Hit Type [3]: Enhancement

CCc1occc(=O)c1O [Hit 40]
Hit Type [3]: Enhancement

CCc1ccc(C=O)cc1 [Hit 41]
Hit Type [3]: Enhancement

C[C@@H]1CC[C@H]2[C@H](C)C(=O)O[C@@H]2C1 [Hit 42]
Hit Type [3]: Enhancement

COC(C)(C)CCCC(C)C=O (stereo not drawn) [Hit 43]
Hit Type [3]: Enhancement

CCCCCC/C=C/C=O [Hit 44]
Hit Type [3]: Enhancement

CCCCCC/C=C/C=O [Nonylenic aldehyde]
α (cooperativity factor) (OR5AN1): 28.8 | Kb (OR5AN1): 96 µM

CCCCCCCCCC/C=C/C=O [TDA, tridecylenic aldehyde]
enhancement of Olfr1440 MUSCENONE®-induced activity (Olfr1440): did not enhance | activation of OR5AN1 by the compound by itself ([4]; compound alone): did not activate | activation as % of the MUSCENONE® activation window ([4]; compound alone, above approximately 100 μM): less than 8% | maximal activation level (span) of MUSCENONE® ([4]; enhancer at 250 μM): increased span | MUSCENONE® ODT value when mixed with the compound (human panelists): 0.09%

CC(C=O)Cc1ccc2c(c1)OCO2 (stereo not drawn) [heliopropanal]
efficacy increase of (+−)-2,5-dimethyl-2-indanmethanol (OR10J5 [1]; within the dynamic range of the dose response): 1.7 fold | Kb (OR10J5 [2]): 10 µM | α (cooperativity factor) (OR10J5 [2]; LYRAL®, enhancer 0 to 600 μM): 6.3

CC(C)=CCCC(C)C=O (stereo not drawn) [melonal]
α (cooperativity factor) (OR10J5 [2]; LYRAL®, enhancer 0 to 600 μM): 4.1 | Kb (OR10J5 [2]; [5]): 16 µM

CCCCCCCCC=O [nonanal, reference compound]
MUSCENONE® ODT value when mixed with the compound (human panelists): 0.93%

C=CCCCCCCCCC(=O)O [undecenoic acid]
enhancement of OR5AN1 MUSCENONE® response (SAR) ([4]; 250 μM of each compound): absence of enhancement
